Measurements taken from PMC9628989 (Antiviral Research, 2007).
Like-named read-outs stand apart in the source and are kept apart here.

How the values were obtained:
[1] = in vivo; cited from earlier work
[2] = mouse, in vivo, po; cited from earlier work
in vitro [3] = settings: cynomolgus monkey, s9, pH 7.4, Half-life
in vitro [4] = settings: both, human, hepatocytes
[5] = CD-1, mouse, s9, 0 h, pH 7.4
[6] = human, s9, 0 h, pH 7.4
[7] = in vivo; cited from earlier work; remark: listed apart in the source
in vitro [8] = settings: CD-1, mouse, s9, pH 7.4, Half-life
[9] = cynomolgus monkey, s9, 0 h, pH 7.4
in vitro [10] = settings: both, CD-1, mouse, hepatocytes

Row | SMILES | oral bioavailability [1] | orally administered drug accounted for in plasma [2] | half-life (in vitro [3]) [min] | half-life (in vitro [4]) [h] | Percentage of CMX001 remaining at incubation time point 0 min [5] [%] | Percentage of CMX001 remaining at incubation time point 0 min [6] [%] | nephrotoxicity [7] | half-life (in vitro [8]) [h] | Percentage of CMX001 remaining at incubation time point 0 min [9] [%] | half-life (in vitro [10]) [h]
1 | Nc1ccn(C[C@@H](CO)OCP(=O)(O)O)c(=O)n1 [CDV, [S]-1-[3-hydroxy-2-phosphonylmethoxypropyl]cytosine] | poor oral bioavailability | – | – | – | – | – | – | – | – | –
2 | CCCCCCCCCCCCCCCCOCCCOP(=O)(O)CO[C@H](CO)Cn1ccc(N)nc1=O [CMX001, hexadecyloxypropyl ester of CDV] | – | approximately 88% | 8 | 3.8 | 100 | 100 | not been shown to cause nephrotoxicity | > 1.67 | 100 | 3.55
